For the test, the target named is T1, urease (from jack beans) (Canavalia ensiformis, UniProt P07374).
T1 construct: urease (from jack beans); lyophilized 5 U/mg for urea assay in serum; purchased Merck KGaA, Germany; host or cells: jack beans (natural source)
The test is described as follows: odor-preventing effect: ammonia release from urea/urease solution, read with a diffusion tube. The format is biochemical. As to conditions: 2 g composition, 30 mg urease, 50 ml 0.9% NaCl with 8.56 g/l urea, 23° C. As for the experimental part:
100 g lots of water-absorbing polymer from Example 1 were mixed in a tumble mixer with different amounts of N-cyclohexylthiophosphoramide, N-(n-butyl)thiophosphoramide or N-(n-propyl)thiophosphoramide, for 20 minutes each.
To determine the odor-preventing effect, 2 g of each of the compositions produced above were placed in a 100 ml Erlenmeyer flask and admixed with a freshly prepared solution of 30 mg of urease (from jack beans; lyophilized 5 U/mg for urea assay in serum; Merck KGaA, Germany) and 50 ml of 0.9% sodium chloride solution, the sodium chloride solution containing 8.56 g/l of urea, and sealed with a stopper having an internal diffusion tublet (Drager® Röhrchen; ammonia 20/a-D, 20 to 1500 ppm*h). The measured value was read off every 30 minutes. The measurement was discontinued after 6 hours. The test was carried out at 23° C.

Where [1] appears, read: 0.01 % by weight substituted thiophosphoramide in composition with water-absorbing polymer.
Where [2] appears, read: 0.05 % by weight substituted thiophosphoramide in composition with water-absorbing polymer.
Setting [3] is: 0.15 % by weight substituted thiophosphoramide in composition with water-absorbing polymer.
[4] abbreviates: 0.25 % by weight substituted thiophosphoramide in composition with water-absorbing polymer.
[5] abbreviates: 0.35 % by weight substituted thiophosphoramide in composition with water-absorbing polymer.
The mark [6] stands for this setting: 0.50 % by weight substituted thiophosphoramide in composition with water-absorbing polymer.
Where [7] appears, read: 1.50 % by weight substituted thiophosphoramide in composition with water-absorbing polymer.

SMILES strings stand for the structures.

T1 sequence (P07374 whole entry, looked up): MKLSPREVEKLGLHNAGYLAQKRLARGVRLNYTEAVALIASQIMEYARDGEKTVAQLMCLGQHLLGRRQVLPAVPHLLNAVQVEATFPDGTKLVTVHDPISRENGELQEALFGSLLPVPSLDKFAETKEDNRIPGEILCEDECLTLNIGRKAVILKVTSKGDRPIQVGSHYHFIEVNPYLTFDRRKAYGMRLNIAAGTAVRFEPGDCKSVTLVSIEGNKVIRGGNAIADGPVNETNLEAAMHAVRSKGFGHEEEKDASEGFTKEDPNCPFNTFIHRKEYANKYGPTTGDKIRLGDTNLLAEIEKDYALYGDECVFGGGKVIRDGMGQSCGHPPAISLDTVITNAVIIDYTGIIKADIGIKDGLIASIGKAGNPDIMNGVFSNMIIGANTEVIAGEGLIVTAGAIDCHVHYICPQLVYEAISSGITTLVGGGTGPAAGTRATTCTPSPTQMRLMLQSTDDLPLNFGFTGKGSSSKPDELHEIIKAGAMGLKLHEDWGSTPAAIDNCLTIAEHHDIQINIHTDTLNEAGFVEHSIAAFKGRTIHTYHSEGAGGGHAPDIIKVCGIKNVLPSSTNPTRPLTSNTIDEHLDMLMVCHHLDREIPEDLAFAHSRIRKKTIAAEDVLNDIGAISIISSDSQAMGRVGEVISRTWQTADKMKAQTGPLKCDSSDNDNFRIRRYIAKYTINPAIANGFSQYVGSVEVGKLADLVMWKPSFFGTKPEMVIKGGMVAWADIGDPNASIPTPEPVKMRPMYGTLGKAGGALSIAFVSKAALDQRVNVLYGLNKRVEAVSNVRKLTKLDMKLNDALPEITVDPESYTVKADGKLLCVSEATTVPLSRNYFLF

For the molecule `NP(N)(=S)NC1CCCCC1` [R = cyclohexyl, N-cyclohexylthiophosphoramide, reference compound], the “ammonia after 6 hours” value by setting is: under setting [1], “− (more than 50 ppm of ammonia after 6 hours)”; under setting [2], “− (more than 50 ppm of ammonia after 6 hours)”; under setting [3], “− (more than 50 ppm of ammonia after 6 hours)”; under setting [4], “− (more than 50 ppm of ammonia after 6 hours)”; under setting [5], “+ (less than 50 ppm of ammonia after 6 hours)”; under setting [6], “+ (less than 50 ppm of ammonia after 6 hours)”. Besides, the “ammonia after 6 hours” value under setting [7] is “+ (less than 50 ppm of ammonia after 6 hours)”.

For `CCCCNP(N)(N)=S` [R = n-butyl, N-(n-butyl)thiophosphoramide], the “ammonia after 6 hours” value under setting [1] is “+ (less than 50 ppm of ammonia after 6 hours)”; the “ammonia after 6 hours” value under setting [2] is “+ (less than 50 ppm of ammonia after 6 hours)”; the “ammonia after 6 hours” value under setting [3] is listed as “+ (less than 50 ppm of ammonia after 6 hours)”; the “ammonia after 6 hours” value under setting [4] is “+ (less than 50 ppm of ammonia after 6 hours)”; the “ammonia after 6 hours” value under setting [5] was “+ (less than 50 ppm of ammonia after 6 hours)”; the “ammonia after 6 hours” value under setting [6] is listed as “+ (less than 50 ppm of ammonia after 6 hours)”. In addition, the “ammonia after 6 hours” value under setting [7] is reported as “+ (less than 50 ppm of ammonia after 6 hours)”.

Regarding `CCCNP(N)(N)=S` [R = n-propyl, N-(n-propyl)thiophosphoramide], the “ammonia after 6 hours” value under setting [1] is on record as “+ (less than 50 ppm of ammonia after 6 hours)”; the “ammonia after 6 hours” value under setting [2] is listed as “+ (less than 50 ppm of ammonia after 6 hours)”; the “ammonia after 6 hours” value under setting [3] was “+ (less than 50 ppm of ammonia after 6 hours)”; the “ammonia after 6 hours” value under setting [4] is recorded as “+ (less than 50 ppm of ammonia after 6 hours)”; the “ammonia after 6 hours” value under setting [5] is “+ (less than 50 ppm of ammonia after 6 hours)”; the “ammonia after 6 hours” value under setting [6] is reported as “+ (less than 50 ppm of ammonia after 6 hours)”. Further, under setting [7], the “ammonia after 6 hours” value is given as “+ (less than 50 ppm of ammonia after 6 hours)”.
